Test results from patent US10765661B2, “Method for improving feed digestibility and growth performance” (DSM IP ASSETS B.V., priority 2015, dated 2020).
Read-outs that look alike come from different tables or passages of the source. Marks after values point to notes of the source that are not given here.

Legend:
[1] = test system: Male broiler (Ross 308) chicks; format: in vivo; settings: main effect mean (factor: Yes)
Source text: The proteolytic enzyme (Ronozyme®ProAct) and Vitamin C (Staye®50) were provided in powder form and a ready to use formulation by DSM Nutritional Products.
Male broiler (Ross 308) chicks were obtained from a local hatchery as day-olds and reared in cage in an environmentally controlled room. On d 0, chicks were individually weighed and 640 birds were allocated on weight basis to 80 cages (8 chicks per cage). The 8 dietary treatments (Table 1) were then randomly assigned to 10 replicate cages each. Experimental diets were fed from 0-21 and 22-35 days.
During week 1, a broiler coccidiosis vaccine (Immucox, Pacificvet, Christchurch, New Zealand) was given via drinking water to all chicks.
The birds received 20-hours of fluorescent illumination and allowed free access to the diets and water. Birds were checked at least three times daily (9.00 am, […]) and any unusual aspect of bird behaviour or condition was recorded. Sick or injured animals were weighed and removed from the study.
The experimental design is a 2×2×2 factorial arrangement of treatments, with two basal control diets (positive control and negative control), two levels of enzyme (with and without) and two levels of vitamin C (with and without).
The two control diets, positive and negative, based on wheat and soybean meal, were mixed for each phase of the study (0-21 and 22-35 d) (Table 2). The PC and NC diets were then used to develop 8 dietary treatments by adding the ProAct enzyme and Vitamin C mixtures. All the diets were fed in pellet form.
Growth performance: Feed and water were available ad libitum during the 35 days experimental period. Body weights and feed intake were recorded on days 7, 14, 21, 28 and 35. Mortality was recorded daily. Feed per gain values were corrected for the body weight of any bird that died or culled during the course of the experiment.
The data were subjected to ANOVA using the General Linear Models procedure of SAS (2004). Significant differences were considered at P<0.05. When a significant F-test was detected, means were separated using the least significant difference test.

Ross 308 male broilers = assay: Growth performance of broiler chickens fed two proteolytic enzymes supplemented with vitamin C (Example 3); format: in vivo; settings: for FCR / FI / WG: NC diet, Vit. C level 300 mg/kg, alone or with the named enzyme (CIBENZA 350 mg/kg, ProAct 200 mg/kg feed)
Experimental: A total of 490 day old Ross 308 male broilers were randomly assigned to 7 treatments (6 experimental groups plus one control group) with 10 replicates of 7 birds per replicate. Six experimental groups with two levels of vitamin C (0 and 300 mg/kg feed) and three enzyme treatments: • no feed enzymes, • Novus CIBENZA (Bacillus licheniformis PWD-1 at levels of 350 mg/kg feed), • DSM RONOZYME® ProAct (at levels of 200 mg/kg feed), in a 2×3 factorial design plus one positive control. The diets of the positive control (PC) were based on wheat and soybean meal and were adequate in all nutrients. The other 6 experimental groups were fed with a negative control (NC) diet based also on wheat and soybean meal but containing less protein (97.5%) and digestible amino acids (95.5%) than the PC. The birds were fed starter (1-14 d) diets during the trial.
The birds were fed the starter (1-14 d) diets ad libitum and had free access to water throughout the trial. RONOZYME® NP (CT) and RONOZYME® WX at levels of 200 and 100 mg/kg feed respectively were included in each diet. […] After mixing, the feed was pelleted at 75-80° C.
All birds were reared in cages in an environmentally controlled room and received 23L:1D of lighting regime during the first week and 20L:4D afterward until the end of the trial. The temperature of the room was maintained at 32±1° C. on the day of arrival and adapted according to the age specific requirements of the chickens.
At d 4, a broiler coccidiosis vaccine (Coccivac B®, MSD, Canada) was given as a mild challenge to all birds via oral administration. Body weights and feed intake were recorded at weekly intervals. Mortality was recorded daily. The weight of the dead animals was used to adjust the feed conversion ratio (FCR) which were calculated by dividing total feed intake by weight gain of live plus weight of dead birds per cage, respectively.

[2] = 1-7 d, main effect mean of the 2x3 factorial (NC diet)
[3] = 1-14 d, main effect mean of the 2x3 factorial (NC diet)

O=C1O[C@H]([C@@H](O)CO)C(O)=C1O [Vitamin C, L-ascorbic acid]
Feed intake, main effect ([1]; 1-21 d post-hatching): 1437 g/bird | Feed/gain, main effect ([1]; 1-21 d post-hatching): 1.43 g/g | Weight gain, main effect ([1]; 1-21 d post-hatching): 1006 g/bird | Feed intake, main effect ([1]; 1-35 d post-hatching): 3809 g/bird | Feed/gain, main effect ([1]; 1-35 d post-hatching): 1.64 g/g | Weight gain, main effect ([1]; 1-35 d post-hatching): 2349 g/bird | FCR (Ross 308 male broilers; 1-7 d): 1.141 | FI (Ross 308 male broilers; 1-7 d): 157 g/bird | WG (Ross 308 male broilers; 1-7 d): 137 g/bird | FCR, main effect (Ross 308 male broilers; [2]): 1.156 | FI, main effect (Ross 308 male broilers; [2]): 161 g/bird | WG, main effect (Ross 308 male broilers; [2]): 140 g/bird | FCR, main effect (Ross 308 male broilers; 1-7 d, main effect mean of the 2x3 factorial (NC diet), listed as Vit. C): 1.156^A | FCR (Ross 308 male broilers; 1-14 d): 1.354^a | FI (Ross 308 male broilers; 1-14 d): 602 g/bird | WG (Ross 308 male broilers; 1-14 d): 445 g/bird | FCR, main effect (Ross 308 male broilers; [3]): 1.440 | FI, main effect (Ross 308 male broilers; [3]): 635 g/bird | WG, main effect (Ross 308 male broilers; [3]): 443 g/bird | FCR, main effect (Ross 308 male broilers; 1-14 d, main effect mean of the 2x3 factorial (NC diet), listed as Vit. C): 1.440^A | FCR, main effect (Ross 308 male broilers; d 1 to d 21, birds fed vitamin C vs. 1.516 without, P=0.080): 1.478
